Assay results: US10045962B2 (priority 2014, dated 2018)
Where a name gives a salt, the structure may show the parent alone.

How the values were obtained:
[1] = system: BEAS-2B (lung epithelial); conditions: 10 μM, 72 hours
Method: (§1) These cells were seeded at an amount of 2×10^6 cells, and then added with the culture medium for cultivating the cells to a volume of 10 mL, followed by cultivation for 2 to 3 days. After counting the cell number, these cells were respectively plated in a 96-well plate, in which each well has a fixed cell number of 3000 and a volume of 100 μL.
(§2) After removing the culture medium in the 96-well plate, each well was added with 100 μL of 10 μM commercial drug and then placed for 72 hours. Thereafter, each well was further added with 100 μL of a diluted WST-1 solution (the dilution ratio for the culture medium: WST-1 stock solution (wt/wt) is 9:1).
(§3) Each cell inhibitory experiment was repeated for 4 times, followed by calculation of the mean values thereof, which were shown in the following tables.

[2] = system: Breast cancer; conditions: summary over cell lines, 10 μM, 72 hours
Method: as §1, §2

[3] = system: normal cells
Method: as §1, §2, §3

[4] = system: BCC (basal cell carcinoma); conditions: 10 μM, 72 hours
Method: as §1, §2

[5] = system: PC-3 (prostate adenocarcinoma); conditions: 10 μM, 72 hours
Method: as §1, §2
(§4) Each cancer cell inhibitory experiment was repeated for 4 times, followed by calculation of the mean values thereof, which were shown in the following tables.

[6] = system: AGS (gastric adenocarcinoma); conditions: 10 μM, 72 hours
Method: as §1, §2, §4

[7] = system: TOV-21G; conditions: 10 μM, 72 hours
Method: as §1, §2

[8] = system: BxPC-3; conditions: 10 μM, 72 hours
Method: as §1, §2, §4

[9] = system: Gastric cancer; conditions: summary over cell lines, 10 μM, 72 hours
Method: as §1, §2

[10] = system: HeLa (cervix adenocarcinoma); conditions: 10 μM, 72 hours
Method: as §1, §2

[11] = system: HepG2 (hepatocellular carcinoma); conditions: 10 μM, 72 hours
Method: as §1, §2, §4

[12] = system: TSGH (urinary bladder carcinoma); conditions: 10 μM, 72 hours
Method: as §1, §2

[13] = system: Pancreatic cancer; conditions: summary over cell lines, 10 μM, 72 hours
Method: as §1, §2

[14] = system: Prostate cancer; conditions: summary over cell lines, 10 μM, 72 hours
Method: as §1, §2

[15] = system: Cervical cancer; conditions: summary over cell lines, 10 μM, 72 hours
Method: as §1, §2

[16] = system: HEK 293 (kidney); conditions: 10 μM, 72 hours
Method: as §1, §2, §3

[17] = system: A549 (lung adenocarcinoma); conditions: 10 μM, 72 hours
Method: as §1, §2

[18] = system: U2OS; conditions: 10 μM, 72 hours
Method: as §1, §2

[19] = system: H1650 (lung adenocarcinoma); conditions: 10 μM, 72 hours
Method: as §1, §2

[20] = system: Liver cancer; conditions: summary over cell lines, 10 μM, 72 hours
Method: as §1, §2

[21] = system: various cancer cells; conditions: Table 18, FIG. 1
Method: as §1, §2

[22] = system: LoVo (colorectal adenocarcinoma); conditions: 10 μM, 72 hours
Method: as §1, §2, §4

[23] = system: NIH-OVCAR-3; conditions: 10 μM, 72 hours
Method: as §1, §2

[24] = BEAS-2B normal lung epithelial cells, single experiment

CNCC[C@H](Oc1cccc2ccccc12)c1cccs1 [duloxetine HCl, Duloxetine hydrochloride]
Mean survival rate (%) ([1]; BEAS-2B normal lung epithelial cells, mean of 4 experiments): 72.5% | survival rate 0510-10 min [1, 24]: 59.5% | survival rate 0512-10 min [1, 24]: 76.3% | survival rate 0515-10 min [1, 24]: 74.7% | survival rate 0517-10 min [1, 24]: 79.6% | Survival rate (%) ([1]; Lung epithelial cells (BEAS-2B normal cells), summary table): 72.50% | Survival rate (%) [2]: 48.57% | cytotoxicity to the normal cells ([3]; normal cells): little or no cytotoxicity | selective effect between normal cells and tumor cells ([3]; normal cells versus tumor cells): selective effect | Mean (survival rate) ([4]; mean of 3 experiments): 48.1% | survival rate 0602-30 min ([4]; single experiment): 43.9% | survival rate 0605-10 min ([4]; single experiment): 31.3% | survival rate 0607-10 min ([4]; single experiment): 69.0% | Mean survival rate (%) ([5]; mean of 4 experiments): 45.6% | survival rate PC-3-0524-10 min ([5]; single experiment): 45.0% | survival rate PC-3-0526-10 min ([5]; single experiment): 70.9% | survival rate PC-3-0529-10 min ([5]; single experiment): 41.4% | survival rate PC-3-0531-10 min ([5]; single experiment): 25.1% | Mean survival rate (%) ([6]; mean of 4 experiments): 23.5% | survival rate 0510-10 min ([6]; single experiment): 25.0% | survival rate 0512-10 min ([6]; single experiment): 15.9% | survival rate 0515-10 min ([6]; single experiment): 37.3% | survival rate 0517-10 min ([6]; single experiment): 15.8% | Mean (survival rate) ([7]; mean of 4 experiments): 34.9% | survival rate 7-3-30 min ([7]; single experiment): 30.9% | survival rate 7-4-30 min ([7]; single experiment): 41.9% | survival rate 7-7-30 min ([7]; single experiment): 34.7% | survival rate -4-30 min ([7]; single experiment): 31.9% | Mean survival rate (%) ([8]; mean of 4 experiments): 54.0% | survival rate 3-4-30 min ([8]; single experiment): 72.4% | survival rate 3-7-3-30 min ([8]; single experiment): 62.1% | survival rate 3-7-4-30 min ([8]; single experiment): 58.8% | survival rate 3-7-7-30 min ([8]; single experiment): 22.7% | Survival rate (%) [9]: 41.6% | Mean survival rate (%) ([10]; mean of 4 experiments): 33.8% | survival rate 0524-10 min ([10]; single experiment): 27.7% | survival rate 0526-10 min ([10]; single experiment): 29.9% | survival rate 0529-10 min ([10]; single experiment): 25.4% | survival rate 0531-10 min ([10]; single experiment): 52.1% | Mean survival rate (%) ([11]; mean of 4 experiments): 34.0% | survival rate 0524-20 min ([11]; single experiment): 14.8% | survival rate 0526-20 min ([11]; single experiment): 44.7% | survival rate 0529-20 min ([11]; single experiment): 37.7% | survival rate 0531-20 min ([11]; single experiment): 38.9% | Mean survival rate (%) ([12]; mean of 4 experiments): 49.2% | survival rate 0510-10 min ([12]; single experiment): 36.1% | survival rate 0512-10 min ([12]; single experiment): 59.0% | survival rate 0515-10 min ([12]; single experiment): 61.2% | survival rate 0517-10 min ([12]; single experiment): 40.5% | Survival rate (%) [13]: 57.2% | Survival rate (%) [14]: 59.23% | Survival rate (%) [15]: 36.76% | Mean survival rate (%) ([16]; HEK 293 normal kidney cells, mean, single experiments not given): 62.4% | Survival rate (%) ([16]; Kidney (HEK293 normal cells), summary table): 62.44% | Mean survival rate (%) ([17]; mean of 4 experiments): 37.5% | survival rate 0524-10 min ([17]; single experiment): 32.8% | survival rate 0526-10 min ([17]; single experiment): 53.7% | survival rate 0529-10 min ([17]; single experiment): 33.2% | survival rate 0531-10 min ([17]; single experiment): 30.1% | Survival rate (%) ([18]; Osteosarcoma (U2OS), summary table): 35.09% | Mean survival rate (%) ([18]; U2OS, mean of 4 experiments): 35.1% | survival rate 6-26-10 min ([18]; U2OS, single experiment): 26.6% | survival rate 6-28-10 min ([18]; U2OS, single experiment): 21.5% | survival rate 6-30-10 min ([18]; U2OS, single experiment): 56.6% | survival rate 7-3-10 min ([18]; U2OS, single experiment): 35.6% | Mean (survival rate) ([19]; mean of 4 experiments): 36.3% | survival rate 1-10 min ([19]; single experiment): 35.2% | survival rate 2-20 min ([19]; single experiment): 36.9% | survival rate 3-20 min ([19]; single experiment): 33.6% | survival rate 4-20 min ([19]; single experiment): 39.4% | Survival rate (%) [20]: 40.95% | inhibitory effect against various cancers [21]: significant inhibitory effect | Mean survival rate (%) ([22]; mean of 4 experiments): 47.3% | survival rate 0616-10 min ([22]; single experiment): 44.8% | survival rate 0619-10 min ([22]; single experiment): 63.4% | survival rate 0621-10 min ([22]; single experiment): 49.9% | survival rate 0623-10 min ([22]; single experiment): 31.0% | Mean survival rate (%) ([23]; mean of 4 experiments): 68.2% | survival rate 7-3-30 min ([23]; single experiment): 64.8% | survival rate 7-4-30 min ([23]; single experiment): 74.6% | survival rate 7-7-30 min ([23]; single experiment): 78.5% | survival rate -4-30 min ([23]; single experiment): 55.0%
